Consider 18 substances from US11607446B2, “Personalized immunotherapy against several neuronal and brain tumors” (Immatics Biotechnologies GmbH, priority 2013, dated 2023).

The experiment concerns CD8+ T cells. Description: In vitro immunogenicity of HLA-A*24 class I peptides: in vitro T-cell priming with aAPCs loaded with peptide/MHC complexes and anti-CD28 antibody, pMHC multimer readout. Type of experiment: cell-based, human. Particulars: given as a class symbol; for Donors: share of positive donors in the in vitro immunogenicity experiments; for Wells: share of positive wells in the in vitro immunogenicity experiments. The procedure:
In order to obtain information regarding the immunogenicity of the TUMAPs of the present invention, we performed investigations using an in vitro T-cell priming assay based on repeated stimulations of CD8+ T cells with artificial antigen presenting cells (aAPCs) loaded with peptide/MHC complexes and anti-CD28 antibody.
Isolated CD8+ lymphocytes or PBMCs were incubated until use in T-cell medium (TCM) consisting of RPMI-Glutamax (Invitrogen, Karlsruhe, Germany) supplemented with 10% heat inactivated human AB serum (PAN-Biotech, Aidenbach, Germany), 100 U/ml Penicillin/100 μg/ml Streptomycin (Cambrex, Cologne, Germany), 1 mM sodium pyruvate (CC Pro, Oberdorla, Germany), 20 μg/ml Gentamycin (Cambrex). 2.5 ng/ml IL-7 (PromoCell, Heidelberg, Germany) and 10 U/ml IL-2 (Novartis Pharma, Nurnberg, Germany) were also added to the TCM at this step. Generation of pMHC/anti-CD28 coated beads, T-cell stimulations and readout was performed in a highly defined in vitro system using four different pMHC molecules per stimulation condition and 8 different pMHC molecules per readout condition. All pMHC complexes used for aAPC loading and cytometric readout were derived from UV-induced MHC ligand exchange with minor modifications. In order to determine the amount of pMHC monomer obtained by exchange we performed streptavidin-based sandwich ELISAs according to (Rodenko et al., 2006). The purified co-stimulatory mouse IgG2a anti human CD28 Ab 9.3 (Jung et al., 1987) was chemically biotinylated using Sulfo-N-hydroxysuccinimidobiotin as recommended by the manufacturer (Perbio, Bonn, Germany). Beads used were 5.6 μm diameter streptavidin coated polystyrene particles (Bangs Laboratories, Illinois, USA).
800.000 beads/200 μl were coated in 96-well plates in the presence of 4×12.5 ng different biotin-pMHC, washed and 600 ng biotin anti-CD28 were added subsequently in a volume of 200 μl. Stimulations were initiated in 96-well plates by co-incubating 1×10^6 CD8+ T cells with 2×10^5 washed coated beads in 200 μl TCM supplemented with 5 ng/ml IL-12 (PromoCell) for 3-4 days at 37° C. Half of the medium was then exchanged by fresh TCM supplemented with 80 U/ml IL-2 and incubating was continued for 3-4 days at 37° C. This stimulation cycle was performed for a total of three times, with 12 individual wells per condition For the pMHC multimer readout using 8 different pMHC molecules per condition, a two-dimensional combinatorial coding approach was used as previously described (Andersen et al., 2012) with minor modifications encompassing coupling to 5 different fluorochromes. Finally, multimeric analyses were performed by staining the cells with Live/dead near IR dye (Invitrogen, Karlsruhe, Germany), CD8-FITC antibody clone SK1 (BD, Heidelberg, Germany) and fluorescent pMHC multimers. For analysis, a BD LSRII SORP cytometer equipped with appropriate lasers and filters was used. Peptide specific cells were calculated as percentage of total CD8+ cells. Evaluation of multimeric analysis was done using the FlowJo software (Tree Star, Oregon, USA). In vitro priming of specific multimer+ CD8+ lymphocytes was detected by comparison to irrelevant control stimulations.
Exemplary flow cytometry results after TUMAP-specific multimer staining for two peptides of the invention are shown in FIG. 4 together with corresponding negative controls.

Turning to “VYQVLQEHL (listed as Homo sapiens) [BMP7-001]”, the Donors result is recorded as “++ (20%-49 % = ++)” and the Wells result was “+ (<20% = +)”.

As to “PFAKPLPTF (listed as Homo sapiens) [EP4-001]”, the Donors entry is given as “++ (20%-49 % = ++)” and the Wells result is “+ (<20% = +)”.

With “CRB 1-001 (SYFENVHGF; listed as Homo sapiens)”, the Donors result is recorded as “++ (20%-49 % = ++)” and the Wells entry is reported as “+ (<20% = +)”.

Consider “TYVDSSHTI (listed as Homo sapiens) [VCAN-003]”, for which the Donors result is given as “+++ (50%-70% = +++)” and the Wells entry was “+ (<20% = +)”.

Take “QYVFIHDTL (listed as Homo sapiens) [PTP-015]”: the Donors entry is on record as “++ (20%-49 % = ++)” and the Wells entry is “+ (<20% = +)”.

For “KYFSFPGEL (listed as Homo sapiens) [SLC-002]”, the Donors result is recorded as “++ (20%-49 % = ++)” and the Wells entry is on record as “+ (<20% = +)”.

For the substance “TYIIKSVGF (listed as Homo sapiens) [UNKN-003]”, the Donors entry is on record as “++ (20%-49 % = ++)” and the Wells result is on record as “+ (<20% = +)”.

Regarding “VYYFHPQYL (listed as Homo sapiens) [ST8SIA5-001]”, the Donors entry is reported as “++++ (>70% = ++++)” and the Wells entry is listed as “++ (20%-49 % = ++)”.

In the case of “YYQIRSSQL (listed as Homo sapiens) [EXOC7-001]”, the Donors result is “++ (20%-49 % = ++)” and the Wells entry is “+ (<20% = +)”.

For “KYFDKVVTL (listed as Homo sapiens) [KIF7-001]”, the Donors entry is listed as “++ (20%-49 % = ++)” and the Wells entry is “+ (<20% = +)”.

Take “NYIDNVGNLHF (listed as Homo sapiens) [LNX1-001]”: the Donors entry is “++ (20%-49 % = ++)” and the Wells entry is reported as “+ (<20% = +)”.

Consider “IYGGHHAGF (listed as Homo sapiens) [OLIG2-001]”, for which the Donors result is “++ (20%-49 % = ++)” and the Wells result is listed as “+ (<20% = +)”.

With “EYIRALQQL (listed as Homo sapiens) [ASCL1-001]”, the Donors result is recorded as “++ (20%-49 % = ++)” and the Wells entry is reported as “+ (<20% = +)”.

“TYNYAVLKF (listed as Homo sapiens) [GPM-002]”: the Donors result is “+++ (50%-70% = +++)” and the Wells entry was “+ (<20% = +)”.

Regarding “IFTYIHLQL (listed as Homo sapiens) [LOC72839-001]”, the Donors result is “+++ (50%-70% = +++)” and the Wells entry is recorded as “+ (<20% = +)”.

“VYNDIGKEMLL (listed as Homo sapiens) [KIF1B-002]”: the Donors result is given as “++ (20%-49 % = ++)” and the Wells result is listed as “+ (<20% = +)”.

Regarding “KFAEEFYSF (listed as Homo sapiens) [CDCA7L-001]”, the Donors result is reported as “++ (20%-49 % = ++)” and the Wells result is “+ (<20% = +)”.

For the substance “ZNFS3-001 (RYLPSSVFL; listed as Homo sapiens)”, the Donors result is reported as “+++ (50%-70% = +++)” and the Wells result is listed as “++ (20%-49 % = ++)”.
